The test system of this experiment is ALK1 mutant zebrafish. In words: Treatment of ALK1 mutant zebrafish, microscopic images of the lateral dorsal aorta. Type of experiment: in vivo. Particulars: 0.3 μM ATRA, 24-51 hours after insemination; control 0.1% DMSO; FIG. 5. Here is the method:
The zebrafish ALK1 mutant is in a gene that is defective in some patients that suffer from HHT (hereditary hemorrhagic telangiectasia). The ALK1 mutant phenotype is an enlarged lateral dorsal aorta (LDA).
The treatment with the different active ingredients took place, between 24-51 hours after insemination of zebrafish eggs. The treatment was performed with 0.1% DMSO (first row) and 0.3 μM ATRA (second row).

One compound from patent publication US20190151274A1, “COMPOUND FOR USE IN THE TREATMENT OF A BLOOD VESSEL DISEASE” (Universitaet Potsdam, priority 2017, published 2019) can be followed below.

As to `CC1=C(/C=C/C(C)=C/C=C/C(C)=C/C(=O)O)C(C)(C)CCC1` [ATRA, all-trans retinoic acid], the “overgrowth of the aorta (enlarged lateral dorsal aorta) in the ALK1 mutant” value is listed as “suppressed”.
